Measured values taken from patent publication US20250171404A1, “PCNA INHIBITORS AND USES THEREOF” (CITY OF HOPE, priority 2022, published 2025).

Legend:
[1] = Compound metabolism in liver microsome; format: in vitro ADME, human; conditions: compared with AOH1160
Procedure: FIGS. 12A-12E. AOH1996 metabolism and in vivo pharmacokinetics. FIG. 12A: Illustration of AOH1160 degradation by carboxyl esterase-mediated cleavage or by hydroxylation. FIG. 12B: Chromatogram of liver microsome reaction mixtures of AOH1160 and AOH1996. The metabolites shown in FIG. 12A are indicated above their corresponding peaks. FIG. 12C: An aliquot of the liver microsome reaction mixture of AOH1996 was taken after various incubation times in the presence or absence of NADPH as the energy source. AOH1996 concentrations, determined by LC/MS-MS, as a percentage of the input concentration were graphed. FIG. 12D: After oral administration, the plasma concentrations of AOH1996 from three male and three female ES1e/SCID mice at the indicated time points were averaged and graphed ±S.D. The inset contains PK parameters determined by a standard noncompartmental method. FIG. 12E: A similar PK study of AOH1996 was performed in dogs.
Measurement of compound metabolism in liver microsome. AOH1160 analogs were incubated in human liver microsomes in the presence or absence of NADPH at 37° C. An aliquot of the reaction mixture was taken after various incubation times. Compound concentration was determined by liquid chromatography-tandem mass spectrometry (LC-MS/MS) as previously described (Gu et al., 2018).

[2] = test system: MDA-MB-468 xenograft tumors; assay: Xenograft tumor model, breast cancer; format: in vivo, mice; conditions: 40 mg/kg twice daily, oral, vs vehicle
Procedure: (§1) FIGS. 4A-4H. Pharmacokinetics and anti-tumor growth activity of AOH1996 in vivo. FIG. 4A: After oral administration, the plasma concentrations of AOH1996 from three male and three female ES1^e/SCID mice at the indicated time points were averaged and graphed ±S.D. The inset contains PK parameters determined by a standard noncompartmental method. FIG. 4B: A similar PK study of AOH1996 was performed in dogs. FIGS. 4C-4E: Mice bearing the xenograft tumors of neuroblastoma (FIG. 4C: SK-N-BE(2)c), breast cancer (FIG. 4D: MDA-MB-468), and small-cell lung cancer (FIG. 4E: H82) were given vehicle only (black) or 40 mg/kg of AOH1996 (grey) twice daily immediately after the first measurement. Tumor sizes were measured by a dial caliper each week. Tumor volumes (0.4×L×W^2) were averaged and graphed ±S.E. (*, P<0.01). FIG. 4F: Animal body weight was monitored throughout the studies as an indicator of toxicity. […] FIG. 4G: The levels of phosphor-Chk1 (pChk1) and γH2A.X in SK-N-BE(2)c derived tumor samples were analyzed by IHC. […] The p values determined by the Log-rank (Mantel-Cox) test between combination treatment and each of the control groups are p=0.0003 (Combination vs. NoRx), p=0.005 (Combination vs. AOH1996 alone), and p=0.024 (Combination vs. CPT-11 alone).
In vivo tumor model. […] Tumor size and animal weight were measured weekly. […]

[3] = Oral pharmacokinetic study in dogs; format: in vivo, beagle dogs
Procedure: as §1, with “Tumor volumes (0.4×L×W^2) were averaged and graphed ±S.E. (*, P<0.01).” left out
Pharmacokinetic (PK) study in animals. […] Following removal of blood cells, plasma concentration of AOH1996 was determined by LC-MS/MS as described (Gu et al., 2018). […]

[4] = Oral pharmacokinetic study in mice; format: in vivo, ES1^e/SCID mice
Procedure: FIGS. 4A-4H. Pharmacokinetics and anti-tumor growth activity of AOH1996 in vivo. FIG. 4A: After oral administration, the plasma concentrations of AOH1996 from three male and three female ES1^e/SCID mice at the indicated time points were averaged and graphed ±S.D. The inset contains PK parameters determined by a standard noncompartmental method. FIG. 4B: A similar PK study of AOH1996 was performed in dogs. FIGS. 4C-4E: Mice bearing the xenograft tumors of neuroblastoma (FIG. 4C: SK-N-BE(2)c), breast cancer (FIG. 4D: MDA-MB-468), and small-cell lung cancer (FIG. 4E: H82) were given vehicle only (black) or 40 mg/kg of AOH1996 (grey) twice daily immediately after the first measurement. Tumor sizes were measured by a dial caliper each week. Tumor volumes (0.4×L×W^2) were averaged and graphed ±S.E. (*, P<0.01). FIG. 4F: Animal body weight was monitored throughout the studies as an indicator of toxicity. Shown is a typical study results from the study of the SK-N-BE(2)c tumor model described in (FIG. 4C). FIG. 4G: The levels of phosphor-Chk1 (pChk1) and γH2A.X in SK-N-BE(2)c derived tumor samples were analyzed by IHC. Shown are representative images taken from tumors treated by vehicle only or by 40 mg/kg AOH1996. FIG. 4H: ES1^e/SCID mice bearing SK-N-AS derived xenograft tumors were treated with either 80 mg/kg of AOH1996 (black, n=7) for 8 d beginning 8 d after tumor implantation, 15 mg/kg of CPT-11 (n=8) for 3 d beginning 12 d after tumor implantation, or both agents (combination, n=8) under the same dosages and schedules as they were dosed alone. Mice implanted with the same tumor and left untreated were used as control (n=8). Shown are the survival graphs. The p values determined by the Log-rank (Mantel-Cox) test between combination treatment and each of the control groups are p=0.0003 (Combination vs. NoRx), p=0.005 (Combination vs. AOH1996 alone), and p=0.024 (Combination vs. CPT-11 alone).
The improved stability of AOH1996 (FIGS. 12A-12E) translated into a significant benefit in the pharmacokinetics (PK).
Pharmacokinetic (PK) study in animals. An oral dosing solution was prepared by dissolving AOH1996 (40 mg) in a mixture of Kolliphor EL (840 mg) and Poloxamer P124 (120 mg). For the mouse study, blood samples were collected from ES1^e/SCID mice (3 male and 3 female) per dosing group by cardiac puncture at 10, 20, and 30 min and 1, 2, 4, 6, and 24 h after dosing. For the dog study, blood samples were collected from 3 male beagle dogs per dosing group by venipuncture of peripheral veins at 5, 15, and 30 min and 1, 2, 4, 8, 12, and 24 h after dosing. Following removal of blood cells, plasma concentration of AOH1996 was determined by LC-MS/MS as described (Gu et al., 2018). Oral PK was determined using standard non-compartmental methods.

SMILES: COc1cccc(Oc2ccccc2NC(=O)CNC(=O)c2cccc3ccccc23)c1 [AOH1996, N-(2-((2-(3-methoxyphenoxy)phenyl)amino)-2-oxoethyl)-1-naphthamide]
- metabolic stability [1]: metabolically more stable than AOH1160
- tumor burden [2]: significantly reduced tumor burden
- PK parameters in dogs [3]: Comparable PK parameters
- half-life ([4]; 40 mg/kg, mice): 4.33 h
- increase in area under curve (AUC) vs AOH1160 ([4]; 40 mg/kg, mice): ~4%
- increase in half-life vs AOH1160 ([4]; 40 mg/kg, mice): ~27%
- increase in peak concentration (Cmax) vs AOH1160 ([4]; 40 mg/kg, mice): ~40%
- absorption into circulation ([4]; animals, data not shown): ~90%
